Measured values: patent US8962844B2, “1,3,4-oxadiazole and 1,3,4-thiadiazole β-lactamase inhibitors” (priority 2012, dated 2015)
Where a name gives a salt, the structure may show the parent alone.

Legend:
[1] = tested on: bacterial strains that express the class D cephalosporinase OXA-15; test: Standard BLI potentiation MIC / synergy MIC (sMIC) assays run in the presence of a β-lactam, OXA-15 expressing strains; assay type: cell-based, E. coli; settings: BLI in combination with a β-lactam; comparison with Avibactam (comparator compound CCC)
Description: (§1) Unless otherwise indicated, the activity of the BLI compounds can be described by the MIC value obtained from a Synergy MIC assay or a BLI potentiation assay (e.g as described herein), both of which are run in the presence of a β-lactam.
(§2) A set of β-lactamase expressing isogenic E. coli strains was constructed by cloning a β-lactamase gene into a customized derivative of pBR322 (GenBank Accession Number J01749) and transforming the engineered plasmids into E. coli. The NdeI restriction site within the plasmid backbone of pBR322 was removed to generate pBR322 ΔNdeI. The pBR322 ΔNdeI vector itself, minus the blaTEM-1 gene, was amplified using two primers: (1) pBR-Pbla 5′-cgcatatgactettectttttcaatattattg-3, SEQ ID 1, a primer with an engineered NdeI restriction site at the 3′ end of the blaTEM-1 promoter and (2) pBR-vec-1 5′-[…]-3′, SEQ ID 2, a primer with an engineered BamHI restriction site at the 3′ end of the blaTEM-1 open reading frame. The chloramphenicol resistance gene, cat, was generated by PCR amplification from pKD3 (GenBank Accession Number AY048742) using primers with an engineered NdeI restriction site at the 5′ end (Pbla-cat 5′-[…]-3′, SEQ ID 3) and an engineered BamHI restriction site at the 3′ end (Vec-1-cat 5′-[…]-3′, SEQ ID 4) of the resistance gene. The two PCR products, pBR322 ΔNdeI and cat were ligated together generating pBR-CBST (pBR322 ΔNdeI ΔTEM-1::cat Seq. ID 5) which retains both the pBR322 tetracycline resistance cassette, tetA, and the plasmid origin of replication but the blaTEM-1 gene was replaced by the cat gene.
(§3) Using this engineering strategy a number of plasmids producing β-lactamase genes from different classes (see below) were generated using synthetic genes with an engineered NdeI restriction site at the 5′ end and BamHI restriction site at the 3′ end of each gene (GenScript). Both the synthetic β-lactamase genes and cat gene were ligated into the NdeI/BamHI sites of the pBR322 ΔNdeI PCR product and transformed into electrocompetent E. coli ElectroMax DH10B (Invitrogen/Life Technologies). E. coli DH10B harboring the recombinant plasmids were selected on LB agar (supplemented with 25 μg/mL tetracycline) and single isolated colonies were then inoculated into 5 mL LB media (supplemented with 25 μg/mL tetracycline), and incubated at 37° C. with aeration (250 rpm) for 18 hrs. The cultures were frozen back at −80° C. in 20% glycerol. The DNA sequence of the cloned β-lactamase genes was confirmed. The β-lactamase gene expression in the recombinant E. coli strains was driven by the blaTEM-1 promoter in the pBR-CBST plasmid and was characterized by MIC profiling of the E. coli recombinant strains against comparator β-lactam/BLI combinations in broth microdilution assay.
(§4) The experimental protocol was performed according to Clinical and Laboratory Standards Institute (CLSI) guidelines with modifications as described below (CLSI guidelines can be derived from the CLSI document M07-A9 published in January 2012: “Methods for Dilution Antimicrobial Susceptibility Tests for Bacteria That Grow Aerobically; Approved Standard-Ninth Edition”).
(§5) To prepare for MIC testing, frozen glycerol stocks of clinical isolates (Klebsiella pneumoniae, Eschericia coli, Enterobacter spp, Citrobacter spp, or Pseudomonas aeruginosa) were used to streak for isolated colonies on rich, non-selective, tryptic soy agar containing 5% sheep's blood (TSAB). Frozen glycerol stocks of laboratory engineered, isogenic E. coli strains, which contain cloned β-lactamase expressing plasmids were used to streak for isolated colonies on rich, selective LB agar supplemented with 25 μg/mL tetracycline to maintain the plasmid. All strains were incubated at 37° C. for 18-24 hrs.
(§6) On the day of testing, primary cultures were started by scraping off 5-10 colonies from the TSAB plates containing clinical strains or the tetracycline supplemented LB plates containing engineered strains. […]

[2] = tested on: bacterial strains that express KPC β-lactamases; test: Standard BLI potentiation MIC / synergy MIC (sMIC) assays run in the presence of a β-lactam, KPC expressing strains; assay type: cell-based; settings: more active for at least one KPC strain and/or better spectrum of activity than Avibactam; BLI in combination with a β-lactam
Description: as §1, §2, §3, §4, §5, §6

Compound: O=C1N2C[C@@H](CC[C@H]2c2nnc(CCNC3CNC3)o2)N1OS(=O)(=O)O [Compound 745, (2S,5R)-2-(5-(2-(azetidin-3-ylamino)ethyl)-1,3,4-oxadiazol-2-yl)-7-oxo-1,6-diazabicyclo[3.2.1]octan-6-yl hydrogen sulfate]
- activity against bacterial strains that express the class D cephalosporinase OXA-15, compared with Avibactam [1]: more active than Avibactam
- activity and/or spectrum of activity against bacterial strains that express KPC β-lactamases, compared with Avibactam [2]: more active than Avibactam

Compound: O=C1N2C[C@@H](CC[C@H]2c2nnco2)N1OS(=O)(=O)O [Compound 701, (2S,5R)-2-(1,3,4-oxadiazol-2-yl)-7-oxo-1,6-diazabicyclo[3.2.1]octan-6-yl hydrogen sulfate]
- activity against bacterial strains that express the class D cephalosporinase OXA-15, compared with Avibactam [1]: more active than Avibactam
- activity and/or spectrum of activity against bacterial strains that express KPC β-lactamases, compared with Avibactam [2]: more active than Avibactam

Compound: N=C(N)N[C@H]1C[C@@H](c2nnc([C@@H]3CC[C@@H]4CN3C(=O)N4OS(=O)(=O)O)o2)C1 [Compound 749, (2S,5R)-2-(5-((1s,3R)-3-guanidinocyclobutyl)-1,3,4-oxadiazol-2-yl)-7-oxo-1,6-diazabicyclo[3.2.1]octan-6-yl hydrogen sulfate]
- activity against bacterial strains that express the class D cephalosporinase OXA-15, compared with Avibactam [1]: more active than Avibactam
- activity and/or spectrum of activity against bacterial strains that express KPC β-lactamases, compared with Avibactam [2]: more active than Avibactam

Compound: O=C1N2C[C@@H](CC[C@H]2c2nnc(C3CCNCC3)o2)N1OS(=O)(=O)O [Compound 711, (2S,5R)-7-oxo-2-(5-(piperidin-4-yl)-1,3,4-oxadiazol-2-yl)-1,6-diazabicyclo[3.2.1]octan-6-yl hydrogen sulfate]
- activity against bacterial strains that express the class D cephalosporinase OXA-15, compared with Avibactam [1]: more active than Avibactam
- activity and/or spectrum of activity against bacterial strains that express KPC β-lactamases, compared with Avibactam [2]: more active than Avibactam

Compound: N=C(N)NC1(Cc2nnc([C@@H]3CC[C@@H]4CN3C(=O)N4OS(=O)(=O)O)o2)CC1 [Compound 739, (2S,5R)-2-(5-((1-guanidinocyclopropyl)methyl)-1,3,4-oxadiazol-2-yl)-7-oxo-1,6-diazabicyclo[3.2.1]octan-6-yl hydrogen sulfate]
- activity against bacterial strains that express the class D cephalosporinase OXA-15, compared with Avibactam [1]: more active than Avibactam
- activity and/or spectrum of activity against bacterial strains that express KPC β-lactamases, compared with Avibactam [2]: more active than Avibactam

Compound: N[C@H]1C[C@H](c2nnc([C@@H]3CC[C@@H]4CN3C(=O)N4OS(=O)(=O)O)s2)C1 [Compound 783, (2S,5R)-2-(5-((1r,3S)-3-aminocyclobutyl)-1,3,4-thiadiazol-2-yl)-7-oxo-1,6-diazabicyclo[3.2.1]octan-6-yl hydrogen sulfate]
- activity against bacterial strains that express the class D cephalosporinase OXA-15, compared with Avibactam [1]: more active than Avibactam
- activity and/or spectrum of activity against bacterial strains that express KPC β-lactamases, compared with Avibactam [2]: more active than Avibactam

Compound: O=C1N2C[C@@H](CC[C@H]2c2nnc(CC3CCNC3)o2)N1OS(=O)(=O)O (stereo partly drawn) [Compound 764, (2S,5R)-7-oxo-2-(5-(pyrrolidin-3-ylmethyl)-1,3,4-oxadiazol-2-yl)-1,6-diazabicyclo[3.2.1]octan-6-yl hydrogen sulfate]
- activity against bacterial strains that express the class D cephalosporinase OXA-15, compared with Avibactam [1]: more active than Avibactam
- activity and/or spectrum of activity against bacterial strains that express KPC β-lactamases, compared with Avibactam [2]: more active than Avibactam

Compound: NCCc1nnc([C@@H]2CC[C@@H]3CN2C(=O)N3OS(=O)(=O)O)o1 [Compound 703, (2S,5R)-2-(5-(2-aminoethyl)-1,3,4-oxadiazol-2-yl)-7-oxo-1,6-diazabicyclo[3.2.1]octan-6-yl hydrogen sulfate]
- activity against bacterial strains that express the class D cephalosporinase OXA-15, compared with Avibactam [1]: more active than Avibactam
- activity and/or spectrum of activity against bacterial strains that express KPC β-lactamases, compared with Avibactam [2]: more active than Avibactam

Compound: N[C@@H]1CC[C@H](c2nnc([C@@H]3CC[C@@H]4CN3C(=O)N4OS(=O)(=O)O)o2)C1 [Compound 729, (2S,5R)-2-(5-((1S,3R)-3-aminocyclopentyl)-1,3,4-oxadiazol-2-yl)-7-oxo-1,6-diazabicyclo[3.2.1]octan-6-yl hydrogen sulfate]
- activity against bacterial strains that express the class D cephalosporinase OXA-15, compared with Avibactam [1]: more active than Avibactam
- activity and/or spectrum of activity against bacterial strains that express KPC β-lactamases, compared with Avibactam [2]: more active than Avibactam

Compound: O=C1N2C[C@@H](CC[C@H]2c2nnc(CCCNC3CCNCC3)o2)N1OS(=O)(=O)O [Compound 771, (2S,5R)-7-oxo-2-(5-(3-(piperidin-4-ylamino)propyl)-1,3,4-oxadiazol-2-yl)-1,6-diazabicyclo[3.2.1]octan-6-yl hydrogen sulfate]
- activity against bacterial strains that express the class D cephalosporinase OXA-15, compared with Avibactam [1]: more active than Avibactam
- activity and/or spectrum of activity against bacterial strains that express KPC β-lactamases, compared with Avibactam [2]: more active than Avibactam

Compound: NCCCCc1nnc([C@@H]2CC[C@@H]3CN2C(=O)N3OS(=O)(=O)O)o1 [Compound 735, (2S,5R)-2-(5-(4-aminobutyl)-1,3,4-oxadiazol-2-yl)-7-oxo-1,6-diazabicyclo[3.2.1]octan-6-yl hydrogen sulfate]
- activity against bacterial strains that express the class D cephalosporinase OXA-15, compared with Avibactam [1]: more active than Avibactam
- activity and/or spectrum of activity against bacterial strains that express KPC β-lactamases, compared with Avibactam [2]: more active than Avibactam

Compound: N=C(N)NC[C@@H](O)c1nnc([C@@H]2CC[C@@H]3CN2C(=O)N3OS(=O)(=O)O)o1 [Compound 731, (2S,5R)-2-(5-((R)-2-guanidino-1-hydroxyethyl)-1,3,4-oxadiazol-2-yl)-7-oxo-1,6-diazabicyclo[3.2.1]octan-6-yl hydrogen sulfate]
- activity against bacterial strains that express the class D cephalosporinase OXA-15, compared with Avibactam [1]: more active than Avibactam
- activity and/or spectrum of activity against bacterial strains that express KPC β-lactamases, compared with Avibactam [2]: more active than Avibactam

Compound: N[C@H]1C[C@@H](NCc2nnc([C@@H]3CC[C@@H]4CN3C(=O)N4OS(=O)(=O)O)o2)C1 [Compound 756, (2S,5R)-2-(5-((((1s,3R)-3-aminocyclobutyl)amino)methyl)-1,3,4-oxadiazol-2-yl)-7-oxo-1,6-diazabicyclo[3.2.1]octan-6-yl hydrogen sulfate]
- activity against bacterial strains that express the class D cephalosporinase OXA-15, compared with Avibactam [1]: more active than Avibactam
- activity and/or spectrum of activity against bacterial strains that express KPC β-lactamases, compared with Avibactam [2]: more active than Avibactam

Compound: N[C@H]1C[C@H](Cc2nnc([C@@H]3CC[C@@H]4CN3C(=O)N4OS(=O)(=O)O)o2)C1 [Compound 751, (2S,5R)-2-(5-(((1r,3S)-3-aminocyclobutyl)methyl)-1,3,4-oxadiazol-2-yl)-7-oxo-1,6-diazabicyclo[3.2.1]octan-6-yl hydrogen sulfate]
- activity against bacterial strains that express the class D cephalosporinase OXA-15, compared with Avibactam [1]: more active than Avibactam
- activity and/or spectrum of activity against bacterial strains that express KPC β-lactamases, compared with Avibactam [2]: more active than Avibactam

Compound: N=C(N)NCCc1nnc([C@@H]2CC[C@@H]3CN2C(=O)N3OS(=O)(=O)O)o1 [Compound 705, (2S,5R)-2-(5-(2-guanidinoethyl)-1,3,4-oxadiazol-2-yl)-7-oxo-1,6-diazabicyclo[3.2.1]octan-6-yl hydrogen sulfate]
- activity against bacterial strains that express the class D cephalosporinase OXA-15, compared with Avibactam [1]: more active than Avibactam
- activity and/or spectrum of activity against bacterial strains that express KPC β-lactamases, compared with Avibactam [2]: more active than Avibactam

Compound: N[C@H]1CN[C@@H](c2nnc([C@@H]3CC[C@@H]4CN3C(=O)N4OS(=O)(=O)O)o2)C1 [Compound 761, (2S,5R)-2-(5-((2R,4R)-4-aminopyrrolidin-2-yl)-1,3,4-oxadiazol-2-yl)-7-oxo-1,6-diazabicyclo[3.2.1]octan-6-yl hydrogen sulfate]
- activity against bacterial strains that express the class D cephalosporinase OXA-15, compared with Avibactam [1]: more active than Avibactam
- activity and/or spectrum of activity against bacterial strains that express KPC β-lactamases, compared with Avibactam [2]: more active than Avibactam
